# Source: patent EP4653017A1, “ANTIBODY-DRUG CONJUGATE AND USE THEREOF” (Tyligand Bioscience (Shanghai) Limited, priority 2023, dated 2024)
# Where a name gives a salt, the structure may show the parent alone. Read-outs that look alike come from different tables or passages of the source.
# Assays:
# THP-1 cells = experiment: Activation of IFN-β secretion by THP-1 cells (IFN-beta ELISA); assay type: cell-based, human; settings: for STING agonist activity (in words): EC50 stronger than 2',3'-cGAMP, comparable to ADU-S100; for EC50: read-out: THP-1 activity
# CT26 cells [1] = experiment: Inhibition of CT26 cell proliferation (CellTiter-Glo); assay type: cell-based, mouse; settings: for IC50: read-out: CT-26 activity; for inhibitory ability on growth of CT26 tumor cells in vitro (in words): superior to ADU-S100
# Procedure: CT26 cells are a mouse colorectal cancer cell line. In this experiment, CellTiter-Glo Luminescence Cell Viability Assay kit from Promega was used to assess the inhibitory activity of the compounds on CT26 cell proliferation.
# When CT26 cells (ATCC #CRL-2638) were revived, the cryovial was rapid shaken in a 37°C water bath to thaw with 1 min. The thawed cell suspension was mixed well with DMEM medium (GE Company, Cat. No. #SH30243.01) containing 10% FBS (GIBCO, Cat. No. #10099-141), centrifuged at 1000 rpm for 5 min, and the supernatant was discarded. The cell pellet was resuspended in 5 mL of complete medium (DMEM medium containing 10% FBS), placed in a cell culture flask with a bottom area of 25 cm^2, and cultured in a cell incubator at 37°C, 5% CO2, and 95% humidity. Passage was performed when the confluence rate of cells reached 70%~80%. Referring to the cell passage method at plating, all cells in the flask were transferred to a 15 mL centrifuge tube, centrifuged at 1000 rpm for 5 minutes, and the supernatant was discarded. The cell pellet was resuspended in 5 mL of new complete medium, 1 mL was placed in a cell culture flask with a bottom area of 25 cm^2, and 4 mL of fresh complete medium was added to continue the culture. Plating was performed when the cell confluence rate of cells reached 70% to 80% again. Referring to the cell passage method at plating, 1/5 of the cell suspension was maintained and the remaining 4/5 of the cell suspension was placed in a 15 mL centrifuge tube. The cells were centrifuged, the old medium was discarded, the cells was washed once with DMEM medium (without serum), and centrifuged to remove the supernatant. Cells were resuspended with DMEM medium (without serum). […]. A cell suspension at a density of 1.1 x 10^4 viable cells/mL was prepared using DMEM medium (without serum) and 90 µL of the cell suspension was added to 96-well clear flat-bottom black-walled cell culture plate wells (Corning, Cat. No. #3603) to yield a cell density of 1000 viable cells/well in the plate. A control group without cells, without compounds, and with complete medium only (i.e., culture medium control) was set up, and a control group without compounds and with cells (i.e., cell control) was set up. The plates were incubated overnight in a cell incubator.
# A DMSO stock solution of 10 mM compound was first serially diluted at a 3.16-fold dilution ratio with DMSO (Sigma, Cat. No. #D2650) to a ninth concentration and a tenth concentration of DMSO control without compound was set. DMSO solutions containing different concentrations of the compound were then diluted a 10-fold dilution ratio with PBS (Solarbio company, Cat. No. #P1020) to achieve a DMSO content of 10% in each concentration of the compound solution. Finally, 10 µL of the above solution was added to the corresponding cell culture plate to achieve a starting concentration of 100 µM compound, a 3.16-fold dilution ratio of adjacent concentrations, and a DMSO content of 1% in the cell culture plate. The plates were maintained in a cell incubator for an additional 120 hours.
# After 120 hours, the CellTiter-Glo reagent (Promega, Cat. No. #G7572) was thawed and the plate was equilibrated at room temperature for 30 min. Then, 100 µL CellTiter-Glo was added to each well of the plate and shaken on an orbital shaker for 5 min to fully lyse the cells. The plate was placed at room temperature for 20 min to stabilize the cold light signal, and the cold light value of each well was scanned with a multifunctional microplate reader (Molecular Devices, Spectramax M3) at full wavelength.
# The compound of the present invention and ADU-S100 (MCE, Cat. No. #HY12885A) were used as controls: Clofarabine (Wuhu Huaren Technology, Cat. No. #HR-00701002), Cladribine (CSNpharm, Cat. No. #CSN10004), Gemcitabine Hydrochloride (Shaoyuan, Cat. No. #SY014538), Gemcitabine Prodrug LY2334737 (home-made). […]
# CT26 cells [2] = experiment: CT26 syngeneic mouse bilateral transplanted tumor model; assay type: in vivo, BALB/c mice; settings: for growth inhibition rates of left tumors: left (untreated) tumor, 50 µg compound/mouse (2.5 mg/kg) intratumorally into right flank on days 0 and 4, day 13 after treatment; for tumor growth inhibition rate: right (treated) tumor, 50 µg compound/mouse (2.5 mg/kg) intratumorally on days 0 and 4, 13 days post treatment
# Procedure: When tumors grew to an average volume of 100 mm^3, treatments were randomized and started based on tumor size and mouse body weight. The first day of dosing was Day 0. Two doses were administered, 50 µg compound/mouse (i.e., 2.5 mg/kg) was injected intratumorally into the right flank on days 0 and 4, and the same volume of PBS (Hyclone Company, Cat. No. #SH30258.01) was used as a control. The left tumor was left untreated. Control mice were sacrificed after 13 days of dosing and treated mice were sacrificed 21 days later. During the experiment, the tumor volume and body weight were measured three times a week on the left and right sides, and the tumor volume was calculated as V = D × d × d/2 (wherein D represents the long diameter of the tumor and d represents the short diameter of the tumor).
# A20 = experiment: Inhibition of tumor cell line proliferation (Table 3), A20; assay type: cell-based; settings: A20, Mouse B lymphoma cells
# A375 = experiment: Inhibition of tumor cell line proliferation (Table 3), A375; assay type: cell-based; settings: A-375; A375, Human melanoma cells
# B16F10 = experiment: Inhibition of tumor cell line proliferation (Table 3), B16F10; assay type: cell-based; settings: B16-F10; B16F10, Mouse melanoma cells
# Daudi = experiment: Inhibition of tumor cell line proliferation (Table 3), Daudi; assay type: cell-based; settings: Human Burkitt's lymphoma cells
# FaDu = experiment: Inhibition of tumor cell line proliferation (Table 3), FaDu; assay type: cell-based; settings: Human pharyngeal squamous carcinoma cell
# H22 = experiment: Inhibition of tumor cell line proliferation (Table 3), H22; assay type: cell-based; settings: H22, Mouse hepatoma cells
# MC38 = experiment: Inhibition of tumor cell line proliferation (Table 3), MC38; assay type: cell-based; settings: MC-38; MC38, Mouse colon cancer cells
# SK-MEL5 = experiment: Inhibition of tumor cell line proliferation (Table 3), SK-MEL5; assay type: cell-based; settings: SK-MEL-5; SK-MEL5, Human melanoma cells
# 4T1 = experiment: Inhibition of tumor cell line proliferation (Table 3), 4T1; assay type: cell-based; settings: 4T1, Mouse breast cancer cells
# [3] = Mus musculus, CT26, 120 hours incubation, CellTiter-Glo
# [4] = IFN-β secretion, 24 hours incubation, ELISA
Compound,STING agonist activity (in words) (THP-1 cells),"EC50 (THP-1 cells; Homo sapiens, THP-1, 24 h) [µM]","IC50 (CT26 cells [1]; Mus musculus, CT26, 120 h) [µM]",inhibitory ability on growth of CT26 tumor cells in vitro (in words) (CT26 cells [1]),growth inhibition rates of left tumors (CT26 cells [2]) [%],also measured
"Nc1nc2c(ncn2[C@@H]2O[C@@H]3CO[P@@](=O)(S)O[C@H]4C[C@H](n5cnc6c(N)nc(Cl)nc65)O[C@@H]4CO[P@@](=O)(S)O[C@@H]2[C@@H]3O)c(=O)[nH]1 [CDN-4, (2',3')-cyclo-(Rp,Rp)-[2'-O-thiophosphodiester-guanosine]-[3'-O-thiophosphodiester-2-chloro-2'-deoxy-adenosine]diammonium salt]",significant STING agonist activity,1 to 10,1 to 10,particularly significant inhibitory ability,75.3,
"Nc1ccn([C@@H]2O[C@H](CO)[C@@H](O)C2(F)F)c(=O)n1 [Gemcitabine, Gemcitabine Hydrochloride, reference compound]",,,,,,IC50 (CT26 cells [1]; [3]): < 1 µM
"(3',3')-cyclo-(Rp,Rp)-[3'-O-thiophosphodiester-guanosine]-[3'-O-thiophosphodiester-2-chloro-2'-deoxy-adenosine]diammonium salt [CDN-6]",significant STING agonist activity,,,particularly significant inhibitory ability,67.4,"EC50 (THP-1 cells; [4]): 1 to 10 µM; IC50 (CT26 cells [1]; 120 hours incubation, CellTiter-Glo): 1 to 10 µM; tumor growth inhibition rate (CT26 cells [2]): 99.5%"
"Nc1ncnc2c1ncn2[C@@H]1O[C@@H]2CO[P@@](=O)(S)O[C@@H]3[C@H](O)[C@@H](CO[P@@](=O)(S)O[C@H]2[C@H]1O)O[C@H]3n1cnc2c(N)ncnc21 [ADU-S100, reference compound]",,1 to 10,> 10,,64.2,IC50 (A20): 5.3 µM; IC50 (A375): > 10 µM; IC50 (B16F10): > 10 µM; IC50 (Daudi): > 10 µM; IC50 (FaDu): > 10 µM; IC50 (H22): > 10 µM; IC50 (MC38): > 10 µM; IC50 (SK-MEL5): > 10 µM; IC50 (4T1): > 10 µM; tumor growth inhibition rate (CT26 cells [2]): 99.1%
"N.N.Nc1nc2c(ncn2C2OC3COP(=O)(S)OC4C(COP(=O)(S)OC2C3O)OC(n2cnc3c(N)nc(F)nc32)C4O)c(=O)[nH]1 (stereo not shown) [CDN-2, (2',3')-cyclo-(Rp,Rp)-[2'-O-thiophosphodiester-guanosine]-[3'-O-thiophosphodiester-2-fluoro-adenosine]diammonium salt]",significant STING agonist activity,,,particularly significant inhibitory ability,,EC50 (THP-1 cells; [4]): 1 to 10 µM
Nc1nc2c(ncn2C2OC3COP(=O)(S)OC4C(COP(=O)(S)OC2C3O)OC(n2cnc3c(N)ncnc32)C4F)c(=O)[nH]1 (stereo not shown) [CDN-11],significant STING agonist activity,1 to 10,,,,
"Nc1nc(Cl)nc2c1ncn2[C@@H]1O[C@H](CO)[C@@H](O)[C@@H]1F [Clofarabine, clofarabine, reference compound]",,,,,,IC50 (CT26 cells [1]; [3]): < 1 µM
Nc1nc2c(ncn2C2OC3COP(=O)(S)OC4CC(n5cnc6c(N)ncnc65)OC4COP(=O)(S)OC3C2O)c(=O)[nH]1 (stereo not shown) [CDN-12],significant STING agonist activity,1 to 10,,,,
"Nc1nc(Cl)nc2c1ncn2[C@H]1C[C@H](O)[C@@H](CO)O1 [Cladribine, cladribine, reference compound]",,,,,,IC50 (CT26 cells [1]; [3]): < 1 µM
"CNc1nc(N)c2ncn([C@@H]3O[C@@H]4CO[P@@](=O)(S)O[C@@H]5[C@H](O)[C@@H](CO[P@@](=O)(S)O[C@H]4[C@@H]3F)O[C@H]5n3cnc4c(=O)[nH]c(N)nc43)c2n1 [CDN-8, (2',3')-cyclo-(Rp,Rp) - [2'-O-thiophosphodiester-guanosine]-[3'-O-thiophosphodiester-2-methylamino-2'-deoxy-2'-fluoro-beta-adenosine] diammonium salt]",significant STING agonist activity,1 to 10,1 to 10,particularly significant inhibitory ability,,
"Nc1nc2c(ncn2[C@@H]2O[C@@H]3CO[P@](=O)(S)O[C@H]4[C@H](F)[C@H](n5cnc6c(N)nc(Cl)nc65)O[C@@H]4CO[P@@](=O)(S)O[C@@H]2[C@@H]3O)c(=O)[nH]1 [CDN-7, (2',3')-cyclo-(Rp,Sp)-[2'-O-thiophosphodiester-guanosine]-[3'-O-thiophosphodiester-2-chloro-2'-deoxy-2'-fluoro-beta-adenosine]diammonium salt]",,10.1 to 100,,,,
"Nc1nc2c(ncn2[C@@H]2O[C@@H]3CO[P@@](=O)(S)O[C@H]4[C@H](F)[C@H](n5cnc6c(N)nc(Cl)nc65)O[C@@H]4CO[P@@](=O)(S)O[C@H]3[C@H]2O)c(=O)[nH]1 [CDN-5, (3',3')-cyclo-(Rp,Rp)-[3'-O-thiophosphodiester-guanosine]-[3'-O-thiophosphodiester-2-chloro-2'-deoxy-2'-fluoro-beta-adenosine]diammonium salt]",significant STING agonist activity,1 to 10,1 to 10,particularly significant inhibitory ability,71.7,
"(2',3')-cyclo-(Rp,Rp)-[2'-O-dithiophosphodiester-guanosine]-[3'-O-dithiophosphate diester -2-amino-3-methoxy-adenosine]diammonium salt [CDN-1]",,,,particularly significant inhibitory ability,,EC50 (THP-1 cells; [4]): 10.1 to 100 µM
